How the values were obtained:
[1] = Stability in rat plasma at 1 uM after 5 mins by LC-MS/MS analysis; assay type: ADME, cell-free; details: read-out: Stability
[2] = Stability in rat plasma at 1 uM after 20 mins by LC-MS/MS analysis; assay type: ADME, cell-free; details: read-out: Stability
[3] = Stability in rat plasma at 1 uM after 40 mins by LC-MS/MS analysis; assay type: ADME, cell-free; details: read-out: Stability
[4] = Stability in rat plasma at 1 uM after 120 mins by LC-MS/MS analysis; assay type: ADME, cell-free; details: read-out: Stability
[5] = Stability in rat liver microsomes at 50 uM after 5 mins in presence of NADPH by LC-MS/MS analysis; assay type: ADME, microsome; details: liver microsomes, read-out: Stability
[6] = Stability in rat liver microsomes at 50 uM after 20 mins in presence of NADPH by LC-MS/MS analysis; assay type: ADME, microsome; details: read-out: Stability
[7] = Stability in rat liver microsomes at 50 uM after 90 mins in presence of NADPH by LC-MS/MS analysis; assay type: ADME, microsome; details: read-out: Stability
[8] = Stability in rat liver microsomes at 50 uM after 150 mins in presence of NADPH by LC-MS/MS analysis; assay type: ADME, microsome; details: read-out: Stability
[9] = Stability in rat liver microsomes at 50 uM after 210 mins in presence of NADPH by LC-MS/MS analysis; assay type: ADME, microsome; details: liver microsomes, read-out: Stability
[10] = Stability in rat liver microsomes at 50 uM after 270 mins in presence of NADPH by LC-MS/MS analysis; assay type: ADME, microsome; details: 4.5 h
[11] = Half life in rat liver microsomes at 50 uM in presence of NADPH by LC-MS/MS analysis; assay type: ADME, microsome
Cytochrome P450 3A4 = Cytochrome P450 3A4 (Homo sapiens, UniProt P08684); assay: Inhibition of CYP3A4 in human liver microsomes preincubated for 10 mins followed by NADPH addition measured after 10 mins by LC-MS/MS analysis; assay type: ADME
Cytochrome P450 3A4, sequence (P08684 whole entry): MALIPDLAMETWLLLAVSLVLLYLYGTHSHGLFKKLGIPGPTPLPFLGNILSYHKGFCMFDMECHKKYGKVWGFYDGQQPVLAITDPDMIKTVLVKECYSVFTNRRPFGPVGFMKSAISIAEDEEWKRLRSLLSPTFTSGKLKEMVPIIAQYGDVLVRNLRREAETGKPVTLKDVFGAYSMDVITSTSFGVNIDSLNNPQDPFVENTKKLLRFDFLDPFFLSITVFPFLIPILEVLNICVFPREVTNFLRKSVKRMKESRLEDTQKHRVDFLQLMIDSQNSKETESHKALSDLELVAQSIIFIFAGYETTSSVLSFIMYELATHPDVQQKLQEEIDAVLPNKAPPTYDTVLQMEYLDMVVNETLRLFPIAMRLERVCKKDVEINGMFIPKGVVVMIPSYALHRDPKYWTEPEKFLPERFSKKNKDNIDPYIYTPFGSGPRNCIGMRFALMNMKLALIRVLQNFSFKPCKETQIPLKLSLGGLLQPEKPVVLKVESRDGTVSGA

[12] = Protein binding in Sprague-Dawley rat plasma at 2 uM after 4 hrs by LC-MS/MS analysis; assay type: ADME, cell-free; details: read-out: PPB (converted)
[13] = AUClast in Wistar rat at 4 mg/kg, iv; assay type: ADME, organism-based; design: dose 4 mg/kg, route intravenous, time 0 - last; details: in vivo
[14] = AUC (0 to infinity) in Wistar rat at 4 mg/kg, iv; assay type: ADME, organism-based; design: dose 4 mg/kg, time infinity, route intravenous; details: in vivo
[15] = Apparent volume of distribution in Wistar rat at 4 mg/kg, iv; assay type: ADME, organism-based; details: in vivo, read-out: Vz
[16] = AUClast in Wistar rat at 8 mg/kg, iv; assay type: ADME, organism-based; design: dose 8 mg/kg, time 0 - last, route intravenous; details: in vivo
[17] = Drug uptake in Wistar rat liver at 6 mg/kg, iv measured after 0.5 hrs; assay type: ADME, organism-based; details: in vivo
[18] = Drug uptake in Wistar rat small intestine at 6 mg/kg, iv measured after 0.5 hrs; assay type: ADME, organism-based; details: in vivo
[19] = Drug uptake in Wistar rat large intestine at 6 mg/kg, iv measured after 0.5 hrs; assay type: ADME, organism-based; details: in vivo
[20] = Drug uptake in Wistar rat heart at 6 mg/kg, iv measured after 0.5 hrs; assay type: ADME, organism-based; details: in vivo
[21] = Drug uptake in Wistar rat large intestine at 6 mg/kg, iv measured after 1 hr; assay type: ADME, organism-based; details: in vivo
[22] = Drug uptake in Wistar rat heart at 6 mg/kg, iv measured after 1 hr; assay type: ADME, organism-based; details: in vivo
[23] = Drug uptake in Wistar rat lungs at 6 mg/kg, iv measured after 4 hrs; assay type: ADME, organism-based, Lung; details: in vivo
[24] = Drug uptake in Wistar rat brain at 6 mg/kg, iv measured after 4 hrs; assay type: ADME, organism-based; details: in vivo
[25] = Drug uptake in Wistar rat spleen at 6 mg/kg, iv measured after 8 hrs; assay type: ADME, organism-based; details: in vivo
[26] = Drug uptake in Wistar rat kidney at 6 mg/kg, iv measured after 8 hrs; assay type: ADME, organism-based; details: in vivo
[27] = Drug uptake in Wistar rat liver at 6 mg/kg, iv measured after 12 hrs; assay type: ADME, organism-based; details: in vivo
[28] = Drug uptake in Wistar rat kidney at 6 mg/kg, iv measured after 12 hrs; assay type: ADME, organism-based; details: in vivo
[29] = Drug uptake in Wistar rat small intestine at 6 mg/kg, iv measured after 12 hrs; assay type: ADME, organism-based; details: in vivo
[30] = Drug uptake in Wistar rat large intestine at 6 mg/kg, iv measured after 12 hrs; assay type: ADME, organism-based; details: in vivo
[31] = Drug uptake in Wistar rat lungs at 6 mg/kg, iv measured after 12 hrs; assay type: ADME, organism-based, Lung; details: in vivo
[32] = Drug excretion in Wistar rat feces at 4 mg/kg, iv measured after 8 hrs; assay type: ADME, organism-based; details: faeces, read-out: Drug excretion
[33] = Drug excretion in Wistar rat urine at 4 mg/kg, iv measured after 0.5 hrs; assay type: ADME, organism-based; details: read-out: Drug excretion
[34] = Drug excretion in Wistar rat urine at 4 mg/kg, iv measured after 2 hrs; assay type: ADME, organism-based; details: read-out: Drug excretion
[35] = Drug excretion in Wistar rat urine at 4 mg/kg, iv measured after 48 hrs; assay type: ADME, organism-based; details: read-out: Drug excretion
Mus musculus [36] = assay: Toxicity in Balb/c mouse assessed as mortality at 20 mg/kg, iv administered three times in a day every 2 days for 15 consecutive days; assay type: organism-based; details: in vivo, 48 h
Mus musculus [37] = assay: Toxicity in Balb/c mouse assessed as decrease in body weight at 10 to 15 mg/kg, iv administered three times in a day every 2 days for 15 consecutive days; assay type: organism-based; details: in vivo, 48 h
Mus musculus [38] = assay: Toxicity in nude mouse xenografted with human NCI-H460 cells assessed as body weight at 6 mg/kg, iv administered once in every 2 days for 14 consecutive days (reference value: 20.6 +/- 1.5 g); assay type: organism-based; details: in vivo, 48 h
Mus musculus [39] = assay: Toxicity in nude mouse xenografted with human NCI-H460 cells assessed as body weight at 3 mg/kg, iv administered once in every 2 days for 14 consecutive days cotreated with 25 mg/kg gefitinib once daily for 14 consecutive days (reference value: 20.6 +/- 1.5 g); assay type: organism-based; details: in vivo, 48 h
NCI-H460 [40] = assay: Antitumor activity against human NCI-H460 cells xenografted in nude mouse assessed as inhibition of tumor weight at 3 mg/kg, iv administered once in every 2 days for 14 consecutive days relative to control; assay type: functional; details: 48 h
NCI-H460 [41] = assay: Antitumor activity against human NCI-H460 cells xenografted in nude mouse assessed as inhibition of tumor weight at 6 mg/kg, iv administered once in every 2 days for 14 consecutive days relative to control; assay type: functional; details: 48 h
NCI-H460 [42] = assay: Antitumor activity against human NCI-H460 cells xenografted in nude mouse assessed as inhibition of tumor weight at 3 mg/kg, iv administered once in every 2 days for 14 consecutive days cotreated with 25 mg/kg gefitinib once daily for 14 consecutive days relative to control; assay type: functional
NCI-H460 [43] = assay: Antitumor activity against human NCI-H460 cells xenografted in nude mouse assessed as inhibition of tumor weight at 6 mg/kg, iv administered once in every 2 days for 14 consecutive days cotreated with 50 mg/kg gefitinib once daily for 14 consecutive days relative to control; assay type: functional
NCI-H460 [44] = assay: Antitumor activity against human NCI-H460 cells xenografted in nude mouse assessed as inhibition of tumor volume at 6 mg/kg, iv administered once in every 2 days for 14 consecutive days relative to control; assay type: functional; details: 48 h
NCI-H460 [45] = assay: Antitumor activity against human NCI-H460 cells xenografted in nude mouse assessed as inhibition of tumor volume at 3 mg/kg, iv administered once in every 2 days for 14 consecutive days cotreated with 25 mg/kg gefitinib once daily for 14 consecutive days relative to control; assay type: functional
Mus musculus [46] = assay: Toxicity in nude mouse xenografted with human NCI-H460 cells assessed as death at 3 to 9 mg/kg, iv administered once in every 2 days for 14 consecutive days; assay type: organism-based; details: in vivo, 48 h

With `[2H]/C(c1nc[nH]c1C(C)(C)C)=c1/[nH]c(=O)/c(=C/c2ccccc2)[nH]c1=O` the remaining at 5 min, 1 µM [1] was 93.9%, the remaining at 20 min, 1 µM [2] was 95.8% and the remaining at 40 min, 1 µM [3] was 95.5%. The remaining at 2 h, 1 µM [4] was 101%, the remaining at 5 min, 50 µM [5] was 84.8% and the remaining at 20 min, 50 µM [6] was 74.8%. The remaining at 1.5 h, 50 µM [7] was 39.9%, the remaining at 2.5 h, 50 µM [8] was 32.9% and the remaining at 3.5 h, 50 µM [9] was 31.5%. The Stability [10] was 35.33%, the t1/2 [11] was 84.88 min and the IC50 (Cytochrome P450 3A4) was over 50 µM. The fraction unbound at 4 h, 2 µM [12] was 0.042, the AUC(0-t) [13] was 1330 ng·h/mL and the AUC(0-inf) [14] was 1330 ng·h/mL. For the same molecule, the Vd [15] was 16.4 L/kg, the AUC(0-t) [16] was 5780 ng·h/mL and the Drug uptake [17] was 8281 ng/mL/g. The Drug uptake [18] was 1799.2 ng/mL/g, the Drug uptake [19] was 1936.4 ng/mL/g and the Drug uptake [20] was 2189.8 ng/mL/g. It also gave a Drug uptake [21] of 1421.7 ng/mL/g, a Drug uptake [22] of 3836.3 ng/mL/g and a Drug uptake [23] of 49038.9 ng/mL/g. For the same molecule, the Drug uptake [24] was 166.5 ng/mL/g, the Drug uptake [25] was 773.1 ng/mL/g and the Drug uptake [26] was 636.5 ng/mL/g. For the same molecule, the Drug uptake [27] was 431.7 ng/mL/g, the Drug uptake [28] was 175.1 ng/mL/g and the Drug uptake [29] was 36.1 ng/mL/g. The Drug uptake [30] was 381 ng/mL/g, the Drug uptake [31] was 2023.8 ng/mL/g and the dose excreted at 8 h [32] was 0.11%. The dose excreted at 0.5 h [33] was 0.02%, the dose excreted at 2 h [34] was 0.05% and the dose excreted at 48 h [35] was 0.26%. For the same molecule, the Activity (Mus musculus [36]) was “Toxic”, the Activity (Mus musculus [37]) was “Non-Toxic” and the Activity (Mus musculus [38]) was 21.1 g. The Activity (Mus musculus [39]) was 19.8 g, the inhibition in vivo at 3 mg/kg (NCI-H460 [40]) was 43% and the inhibition in vivo at 6 mg/kg (NCI-H460 [41]) was 49.5%. The “inhibition (INH)” value (NCI-H460 [42]) was 53.3%, the “inhibition (INH)” value (NCI-H460 [43]) was 60.5% and the inhibition in vivo at 6 mg/kg (NCI-H460 [44]) was 56.9%. The “inhibition (INH)” value (NCI-H460 [45]) was 57.6% and the Activity (Mus musculus [46]) was “Non-Toxic”.
